In ChEMBL document CHEMBL3044764, “Synthesis and herbicidal activities of 2-cyano-3-benzylaminoacrylates containing thiazole moiety” (2010):

Legend:
Medicago sativa [1] = assay: Pre-emergence herbicidal activity against Medicago sativa (alfalfa) at 1500 g/ha after 10 days; type: functional
Brassica napus [2] = assay: Pre-emergence herbicidal activity against Brassica napus (oilseed rape) at 1500 g/ha after 10 days; type: functional
Amaranthus retroflexus [3] = assay: Pre-emergence herbicidal activity against Amaranthus retroflexus at 1500 g/ha after 10 days; type: functional
Medicago sativa [4] = assay: Post-emergence herbicidal activity against Medicago sativa (alfalfa) at 1500 g/ha after 10 days; type: functional
[5] = molecular target: Photosystem II protein D1 (Spinacia oleracea) (UniProt P69560); assay: Inhibition of photosystem II in Spinacia oleracea (spinach) chloroplast assessed as inhibition of hill reaction at 1 ug/ml relative to control
Brassica napus [6] = assay: Post-emergence herbicidal activity against Brassica napus (oilseed rape) at 1500 g/ha after 10 days; type: functional
Amaranthus retroflexus [7] = assay: Post-emergence herbicidal activity against Amaranthus retroflexus at 1500 g/ha after 10 days; type: functional
Brassica napus [8] = assay: Post-emergence herbicidal activity against Brassica napus (oilseed rape) at 750 g/ha after 10 days; type: functional
Brassica napus [9] = assay: Post-emergence herbicidal activity against Brassica napus (oilseed rape) at 375 g/ha after 10 days; type: functional
Amaranthus retroflexus [10] = assay: Post-emergence herbicidal activity against Amaranthus retroflexus at 750 g/ha after 10 days; type: functional
Amaranthus retroflexus [11] = assay: Post-emergence herbicidal activity against Amaranthus retroflexus at 375 g/ha after 10 days; type: functional
Brassica napus [12] = assay: Post-emergence herbicidal activity against Brassica napus (oilseed rape) after 10 days; type: functional

Compound	Activity (Medicago sativa [1]) [%]	Activity (Brassica napus [2]) [%]	Activity (Amaranthus retroflexus [3]) [%]	Activity (Medicago sativa [4]) [%]	inhibition [5] [%]	Activity (Brassica napus [6]) [%]	Activity (Amaranthus retroflexus [7]) [%]	Activity (Brassica napus [8]) [%]	Activity (Brassica napus [9]) [%]	Activity (Amaranthus retroflexus [10]) [%]	Activity (Amaranthus retroflexus [11]) [%]	LD50 (Brassica napus [12]) [g/ha]	LD90 (Brassica napus [12]) [g/ha]
CCOCCOC(=O)/C(C#N)=C(/C)NCc1ccc(OCc2cnc(Cl)s2)cc1	0	0	0	0	56.5	100	32.6	–	–	–	–	–	–
CC/C(NCc1ccc(OCc2cnc(Cl)s2)c(OC)c1)=C(\C#N)C(=O)OCCOC	2	0	0	46.8	70.2	96.6	100	46.4	42.9	32.9	0	237.1	817.35
COCCOC(=O)/C(C#N)=C(\NCc1ccc(OCc2cnc(Cl)s2)c(OC)c1)C(C)C	42.9	41.7	0	71.1	80.4	100	100	94.1	62.4	89.8	73.6	101.62	251.01
CCOCCOC(=O)/C(C#N)=C(\NCc1ccc(OCc2cnc(Cl)s2)cc1)C(C)C	0	0	0	15	72.5	100	91.6	100	51.2	100	47.2	73.01	185.4
COCCOC(=O)/C(C#N)=C(\NCc1ccc(OCc2cnc(Cl)s2)cc1)C(C)C	0	0	0	30	82	100	91.6	100	92.8	100	98.1	53.48	146.04
CCOCCOC(=O)/C(C#N)=C(\NCc1ccc(OCc2cnc(Cl)s2)cc1)SC	0	10	0	0	72.5	100	100	100	95.1	91.6	55.6	49.14	197.66
COCCOC(=O)/C(C#N)=C(\NCc1ccc(OCc2cnc(Cl)s2)c(OC)c1)SC	50.6	0	2.7	66.1	61.2	83.6	89.6	–	–	–	–	–	–
CCOCCOC(=O)/C(C#N)=C(/C)NCc1ccc(OCc2cnc(Cl)s2)c(OC)c1	30.6	0	5	30	68.5	94.2	89.6	–	–	–	–	–	–
CCOCCOC(=O)/C(C#N)=C(\NCc1ccc(OCc2cnc(Cl)s2)c(OC)c1)SC	10	10	0	49.2	87.1	86.3	97.4	–	–	–	–	507.9	2548.33
COCCOC(=O)/C(C#N)=C(\NCc1ccc(OCc2cnc(Cl)s2)cc1)SC	0	0	0	30	80.9	100	71.3	–	–	–	–	–	–
CCOCCOC(=O)/C(C#N)=C(/CC)NCc1ccc(OCc2cnc(Cl)s2)c(OC)c1	0	5	10	41.9	71.3	98.3	100	74.6	41.2	30.9	21	196.53	862.13
CCOCCOC(=O)/C(C#N)=C(/CC)NCc1ccc(OCc2cnc(Cl)s2)cc1	0	0	0	10	70.2	100	96.3	100	40	84.4	24.5	83.96	311.43
CCOCCOC(=O)/C(C#N)=C(\NCc1ccc(OCc2cnc(Cl)s2)c(OC)c1)C(C)C	0	0	0	68.5	93.8	100	100	100	73.5	87.8	59.3	131.42	484.4
COCCOC(=O)/C(C#N)=C(/C)NCc1ccc(OCc2cnc(Cl)s2)cc1	0	0	0	0	65.2	98.5	0	–	–	–	–	–	–
CCOCCOC(=O)/C(C#N)=C(\NCc1ccc(Cl)nc1)SC	0	90.7	35.1	85	75.8	100	100	100	100	100	100	8.84	133.77
COCCOC(=O)/C(C#N)=C(/C)NCc1ccc(OCc2cnc(Cl)s2)c(OC)c1	0	15	0	56.5	42.7	84.6	92.2	–	–	–	–	–	–
CC/C(NCc1ccc(OCc2cnc(Cl)s2)cc1)=C(\C#N)C(=O)OCCOC	0	0	0	0	59.6	100	0	–	–	–	–	205.19	640.88
